# Test system: 699152-130-R-J1-PDC complex spheroid growth
# Assay: Anticancer human tumor 699152-130-R-J1-PDC patient-derived pancreatic carcinoma cell line growth inhibition [AhR]
# Details: for IC50: curve of first compound; for viability, T/C: stronger effect = lower value
# Procedure, shortened: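 Spheroids combined tumor cells with HUVEC endothelial cells and human MSCs as stroma. AhR antagonists were paired with standard or investigational drugs, each dosed in half-log steps down from near clinical Cmax, or from 10 microM where Cmax was unknown.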
# 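Also: compound exposure lasted 7 days after spheroids had grown for 3 days.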
smiles,measurement,setting,value
CC1(C)CCC(CN2CCN(c3ccc(C(=O)NS(=O)(=O)c4ccc(NCC5CCOCC5)c([N+](=O)[O-])c4)c(Oc4cnc5[nH]ccc5c4)c3)CC2)=C(c2ccc(Cl)cc2)C1 + Cc1ccccc1N=Nc1ccc(NC(=O)c2ccnn2C)c(C)c1,IC50,second compound 0.1 µM,> 10 µM
same,IC50,second compound 0.316 µM,> 10 µM
same,IC50,second compound 1 µM,> 10 µM
same,IC50,second compound 3.16 µM,> 10 µM
same,IC50,second compound 10 µM,> 10 µM
same,"viability, T/C","second compound 0.1 µM, first compound 0.0316 µM",93.7%
same,"viability, T/C","second compound 0.1 µM, first compound 0.1 µM",102%
same,"viability, T/C","second compound 0.1 µM, first compound 0.316 µM",103%
same,"viability, T/C","second compound 0.1 µM, first compound 1 µM",95.9%
same,"viability, T/C","second compound 0.1 µM, first compound 3.16 µM",101%
same,"viability, T/C","second compound 0.1 µM, first compound 10 µM",68%
same,"viability, T/C","second compound 0.316 µM, first compound 0.0316 µM",93.2%
same,"viability, T/C","second compound 0.316 µM, first compound 0.1 µM",103%
same,"viability, T/C","second compound 0.316 µM, first compound 0.316 µM",95.9%
same,"viability, T/C","second compound 0.316 µM, first compound 1 µM",95.5%
same,"viability, T/C","second compound 0.316 µM, first compound 3.16 µM",93.5%
same,"viability, T/C","second compound 0.316 µM, first compound 10 µM",74%
same,"viability, T/C","second compound 1 µM, first compound 0.0316 µM",103%
same,"viability, T/C","second compound 1 µM, first compound 0.1 µM",101%
same,"viability, T/C","second compound 1 µM, first compound 0.316 µM",104%
same,"viability, T/C","second compound 1 µM, first compound 1 µM",102%
same,"viability, T/C","second compound 1 µM, first compound 3.16 µM",101%
same,"viability, T/C","second compound 1 µM, first compound 10 µM",65.8%
same,"viability, T/C","second compound 3.16 µM, first compound 0.0316 µM",107%
same,"viability, T/C","second compound 3.16 µM, first compound 0.1 µM",95.2%
same,"viability, T/C","second compound 3.16 µM, first compound 0.316 µM",118%
same,"viability, T/C","second compound 3.16 µM, first compound 1 µM",102%
same,"viability, T/C","second compound 3.16 µM, first compound 3.16 µM",86.5%
same,"viability, T/C","second compound 3.16 µM, first compound 10 µM",71.8%
same,"viability, T/C","second compound 10 µM, first compound 0.0316 µM",114%
same,"viability, T/C","second compound 10 µM, first compound 0.1 µM",124%
same,"viability, T/C","second compound 10 µM, first compound 0.316 µM",118%
same,"viability, T/C","second compound 10 µM, first compound 1 µM",113%
same,"viability, T/C","second compound 10 µM, first compound 3.16 µM",108%
same,"viability, T/C","second compound 10 µM, first compound 10 µM",68.2%
CCN(c1cc(-c2ccc(CN3CCOCC3)cc2)cc(C(=O)NCc2c(C)cc(C)[nH]c2=O)c1C)C1CCOCC1 + Cc1ccccc1N=Nc1ccc(NC(=O)c2ccnn2C)c(C)c1,IC50,second compound 0.1 µM,> 3 µM
same,IC50,second compound 0.316 µM,> 3 µM
same,IC50,second compound 1 µM,> 3 µM
same,IC50,second compound 3.16 µM,> 3 µM
same,IC50,second compound 10 µM,> 3 µM
same,"viability, T/C","second compound 0.1 µM, first compound 0.00949 µM",111%
same,"viability, T/C","second compound 0.1 µM, first compound 0.03 µM",113%
same,"viability, T/C","second compound 0.1 µM, first compound 0.0949 µM",108%
same,"viability, T/C","second compound 0.1 µM, first compound 0.3 µM",104%
same,"viability, T/C","second compound 0.1 µM, first compound 0.949 µM",109%
same,"viability, T/C","second compound 0.1 µM, first compound 3 µM",104%
same,"viability, T/C","second compound 0.316 µM, first compound 0.00949 µM",91.2%
same,"viability, T/C","second compound 0.316 µM, first compound 0.03 µM",95.6%
same,"viability, T/C","second compound 0.316 µM, first compound 0.0949 µM",102%
same,"viability, T/C","second compound 0.316 µM, first compound 0.3 µM",105%
same,"viability, T/C","second compound 0.316 µM, first compound 0.949 µM",109%
same,"viability, T/C","second compound 0.316 µM, first compound 3 µM",114%
same,"viability, T/C","second compound 1 µM, first compound 0.00949 µM",118%
same,"viability, T/C","second compound 1 µM, first compound 0.03 µM",105%
same,"viability, T/C","second compound 1 µM, first compound 0.0949 µM",109%
same,"viability, T/C","second compound 1 µM, first compound 0.3 µM",109%
same,"viability, T/C","second compound 1 µM, first compound 0.949 µM",90.8%
same,"viability, T/C","second compound 1 µM, first compound 3 µM",118%
same,"viability, T/C","second compound 3.16 µM, first compound 0.00949 µM",97.1%
same,"viability, T/C","second compound 3.16 µM, first compound 0.03 µM",104%
same,"viability, T/C","second compound 3.16 µM, first compound 0.0949 µM",108%
same,"viability, T/C","second compound 3.16 µM, first compound 0.3 µM",98.7%
same,"viability, T/C","second compound 3.16 µM, first compound 0.949 µM",99.7%
same,"viability, T/C","second compound 3.16 µM, first compound 3 µM",101%
same,"viability, T/C","second compound 10 µM, first compound 0.00949 µM",113%
same,"viability, T/C","second compound 10 µM, first compound 0.03 µM",113%
same,"viability, T/C","second compound 10 µM, first compound 0.0949 µM",118%
same,"viability, T/C","second compound 10 µM, first compound 0.3 µM",124%
same,"viability, T/C","second compound 10 µM, first compound 0.949 µM",127%
same,"viability, T/C","second compound 10 µM, first compound 3 µM",113%

# From PubChem BioAssay AID1919001 (Molecular Pharmacology Branch, DTP, NCI, 2023)
